Read-outs that look alike come from different tables or passages of the source.
Key:
[1] = target: T1, human muscarinic M1 receptors (Homo sapiens, UniProt P11229); assay: IP production in A9L cells with human M1 receptors (IPOne TR-FRET), Example 28; assay type: cell-based; conditions: for huM1/A9L Smax: percentage of maximal stimulation by carbachol; for huM1/A9L ED50 relative to CCh*: potency relative to carbachol at its EC50, semi-quantitative
T1 construct: host or cells: A9L cells
T1 sequence (P11229 1-460): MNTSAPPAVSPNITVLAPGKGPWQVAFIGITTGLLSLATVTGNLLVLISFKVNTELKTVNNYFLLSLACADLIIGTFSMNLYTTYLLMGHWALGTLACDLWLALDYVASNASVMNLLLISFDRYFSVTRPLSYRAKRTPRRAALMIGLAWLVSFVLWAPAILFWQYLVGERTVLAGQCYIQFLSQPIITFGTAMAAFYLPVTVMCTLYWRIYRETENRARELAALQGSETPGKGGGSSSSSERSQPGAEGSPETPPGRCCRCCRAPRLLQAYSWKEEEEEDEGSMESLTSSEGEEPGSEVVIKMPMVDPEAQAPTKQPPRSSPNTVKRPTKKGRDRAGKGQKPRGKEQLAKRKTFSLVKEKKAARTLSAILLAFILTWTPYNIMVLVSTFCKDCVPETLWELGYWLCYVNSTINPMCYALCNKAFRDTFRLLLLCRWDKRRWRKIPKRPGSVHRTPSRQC
Method: (§1) Muscarinic M1 and M3 agonist activity was evaluated by measuring the stimulation of inositol phosphate (IP) production in the presence of lithium chloride from A9L cells transfected with expression plasmids containing human muscarinic M1 and M3 receptors, respectively. The cell lines were a gift from Professor W Messer, and the methods were as described in Tejada F R et al. J. Med. Chem. 2006; 49: 7518-31 except that the assay was scaled down to run in 384 well plates, and IP was measured in the cell lysates using the non-isotopic IPOne TR-FRET assay (CIS-BIO, Inc).
(§2) Cells were grown to 90% confluence in 384 well hi-base plates (Greiner Bio-One), compounds were added at suitable concentrations in growth medium containing 10 mM LiCl, buffered with an extra 10 mM HEPES (pH7.4), and incubated for 60 minutes at 37° C. Cells were lysed and assayed for IP following the manufacturer's instructions.
(§3) The value for a full agonist is 100%, while partial agonists give values below 100%.

[2] = test system: pooled male human liver microsomes; assay: Metabolism by human liver microsomes, Example 33; assay type: in vitro ADME; conditions: for metabolism in human liver microsomes (in words): 6 hours incubation (FIGS. 4A, 4B); for rate of metabolism of S- versus R-enantiomer: human liver microsomes, as also in rat liver microsomes and FMO Supersomes
Method: Compounds were incubated with pooled male human liver microsomes (BD Biosciences, #452172) and an NADP-regenerating system in a phosphate buffer (pH 7.4) for a total of 6 hours. Aliquots were removed every 2 hours, and 1% formic acid was added to halt the reaction. Samples were centrifuged, filtered through 0.2 micron spinfilter and the amount of each compound in the supernatants was quantitated using LC/MS/MS.

[3] = target: T2, human muscarinic M3 receptors (Homo sapiens, UniProt P20309); assay: IP production in A9L cells with human M3 receptors (IPOne TR-FRET), Example 28; assay type: cell-based; conditions: for huM3/A9L Smax: percentage of maximal stimulation by carbachol; for huM3/A9L ED50 relative to CCh*: potency relative to carbachol at its EC50, semi-quantitative
T2 construct: host or cells: A9L cells
Method: as §1, §2, §3

in vitro = in vitro ADME; conditions: pH 7.4, 24 hours, room temperature
Method: PAMPA is a useful in vitro model for predicting the passive diffusion of drugs across the blood-brain barrier (Li, D et al Eur jour of Med Chem 38 (2003) 223-232).
Compounds were diluted in a 100 mM phosphate buffer (pH 7.4) to a concentration of 400 μM and the stock solutions were placed into a 96-well filter plate (Millipore, #MAIPN4510) pre-wetted with 20 mg/mL porcine brain polar lipid extract in 100% dodecane (Avanti, #131022) and placed into a 96-well acceptor plate (Millipore, #MSSACCEPTOR) whose wells were filled with the same phosphate buffer as in the filter plate. This assembly was incubated at room temperature for 24 hours. The experiment was halted by separating the filter plate from the acceptor plate. Aliquots were removed from the filter plate wells, acceptor plate wells, and stock solutions, and 1% trifluoroacetic acid was added to each. All solutions were measured by LC/UV, and passive diffusion rates were calculated using the peak area values (Avdeef, Alex. 2003. Page 147 in Absorption and Drug Development. Hoboken, N.J.: John Wiley & Sons).

[4] = Blood and brain concentrations (rats), tail vein injection; assay type: in vivo, Long-Evans Hooded rats; conditions: male, Long-Evans Hooded, rat, in vivo, 3 mg/kg, 3 mg/kg tail vein injection, read-out: Brain Concentration at 1 hr
Method: Long-Evans Hooded rats (Charles River: male, 230-300 g) were dosed with solutions of test compounds in PBS by tail vein injection. The dose for all compounds was 3 mg/kg. At one hour, the animals were anesthetized with isoflurane, and then euthanized by decapitation. Trunk blood was collected into a 1.5 mL microcentrifuge tube containing 15 U Heparin, and the plasma recovered after centrifugation. Brains were dissected, weighed, immediately chilled to 4° C., and homogenized using a PowerGen 125 homogenizer in five volumes of ice-cold 2% formic acid. Proteins were precipitated from plasma and brain homogenate with nine and five volumes respectively of ice-cold 2% formic acid and clarified by centrifugation. The supernatant was ultra-filtered by centrifugation through a 3K MWCO spin column (Pall Life Sciences), following the manufacturer's instructions. The concentration of compound in the ultra-filtrate was subjected to reverse-phase liquid chromatography using a 150×2.1 mm Agent C8 reverse-phase column on a Shimadzu Prominence LC, eluting the compounds with a gradient of 2% to 50% of acetonitrile+0.1% formic acid for all compounds. The concentration of the compound in the column effluent was measured using an Applied Biosystems API-3200 triple quadrupole mass spectrometer equipped with an electrospray sample injection system. The counts of the characteristic parent and product ions of each test compound were converted to concentration units by comparison with a standard curve.

[5] = test system: muscarinic M1 receptors in the hippocampus; assay: In vivo inositol phosphate increase in hippocampus, Example 44; design: species or system Long Evans Hooded rats; conditions: rat, 3 mg/kg sc, 5 mmole/kg LiCl
Method: (§4) In lithium chloride-treated laboratory rodents, engagement of muscarinic M1 receptors in the hippocampus may usefully be evaluated in vivo by measuring the increase in the tissue of inositol phosphate (Bymaster F P et al Brain Res 795 (1998) 179-190). This may also be extended to measure engagement of muscaric M3 receptors in the salivary glands.
(§5) Experimental compounds were administered subcutaneously at 3 mg/kg using standard techniques to Long Evans Hooded rats weighing 225 to 350 g, and which had been pretreated with a subcutaneous injection of lithium chloride at a suitable dose between 3 and 5 mmole/kg. At suitable times the animals were briefly anesthetized using 5% isoflurane and euthanized by decapitation. The brains and submaxillary salivary glands were rapidly dissected out, and the hippocampuses were dissected from the brains. The dissected tissues were homogenized in a suitable volume of ice-cold phosphate-buffered saline containing 10 mM lithium chloride (pH=7.4) using a tissue homogenizer, and used immediately or frozen in aliquots at −80° C. for future use. The concentration of inositol-1-phosphate was determined in the homogenates using the […] IP-One Terbium TR-FRET assay kit (Cisbio Bioassays, cat. #62IPAPEJ) according to the manufacturer's instructions.

[6] = test system: muscarinic M3 receptors in the salivary glands; assay: In vivo inositol phosphate increase in salivary glands, Example 44; design: species or system Long Evans Hooded rats; conditions: rat, 3 mg/kg sc, 5 mmole/kg LiCl
Method: as §4, §5

[7] = target: T2, human muscarinic M3 receptors; assay type: cell-based; conditions: for huM3/A9L Smax: percentage of maximal stimulation by carbachol; for huM3/A9L Potency relative to carbachol: relative to the potency of carbachol at its EC50
Method: (§6) Muscarinic M1 and M3 agonist activity was evaluated by measuring the stimulation of inositol phosphate (IP) production in the presence of lithium chloride from A9L cells transfected with expression plasmids containing human muscarinic M1 and M3 receptors, respectively. The cell lines were a gift from Professor William Messer, and the methods were as described in Tejada et al. (J. Med. Chem. 2006; 49: 7518-31) except that the assay was scaled down to run in 384-well plates and the concentration of inositol-1-phosphate in the lysates was determined using the non-isotopic IP-One Terbium TR-FRET assay kit (Cisbio Bioassays, cat. #62IPAPEJ) according to the manufacturer's instructions.
as §2, with “384-well high-base, small-volume” for “384 well hi-base”, “(pH=7.4),” for “(pH7.4),”
as §3

[8] = target: T1, human muscarinic M1 receptors; assay type: cell-based; conditions: for huM1/A9L Smax: percentage of maximal stimulation by carbachol; for huM1/A9L Potency relative to carbachol: relative to the potency of carbachol at its EC50
Method: as §6
as §2, with “384-well high-base, small-volume” for “384 well hi-base”, “(pH=7.4),” for “(pH7.4),”
as §3

[9] = test system: pooled male human liver microsomes; assay: Metabolism in human liver microsomes, Example 45; assay type: in vitro ADME
Method: Aliquots were removed every 2 hours, and 1% formic acid was added to halt the reaction. Samples were centrifuged, filtered through 0.2 micron spinfilter, and the amount of each compound in the supernatants was quantitated using LC/MS/MS as follows. The ultra-filtrates were subjected to reverse-phase liquid chromatography using a 150×2.1 mm Agilent C8-reverse phase column on a Shimadzu Prominence LC, eluting the compound with a gradient of 2%-50% acetonitrile+0.1% formic acid over 5 minutes. The concentration of the compound in the column effluent was measured using an Applied Biosystems API-3200 triple quadrupole mass spectrometer equipped with a Turbo V source (electrospray sample injection) system. The counts of the characteristic parent ions of the protonated compound and product ions were converted to concentration by comparison with a standard calibration curve. The parent/daughter ion pairs that were monitored for each compound were: 166.0/82.0 (105), 166.0/82.0 (106b), 166.0/82.0 (106a), 169.0/83.0 (136), 168.2/83.0 (121), 168.1/83.0 (122a), 168.1/83.0 (122b), 170.2/83.0 (134), 168.2/84.1 (135), 168.1/84.1 (137) and 169.2/82.1 (138).

T2 sequence (P20309 whole entry): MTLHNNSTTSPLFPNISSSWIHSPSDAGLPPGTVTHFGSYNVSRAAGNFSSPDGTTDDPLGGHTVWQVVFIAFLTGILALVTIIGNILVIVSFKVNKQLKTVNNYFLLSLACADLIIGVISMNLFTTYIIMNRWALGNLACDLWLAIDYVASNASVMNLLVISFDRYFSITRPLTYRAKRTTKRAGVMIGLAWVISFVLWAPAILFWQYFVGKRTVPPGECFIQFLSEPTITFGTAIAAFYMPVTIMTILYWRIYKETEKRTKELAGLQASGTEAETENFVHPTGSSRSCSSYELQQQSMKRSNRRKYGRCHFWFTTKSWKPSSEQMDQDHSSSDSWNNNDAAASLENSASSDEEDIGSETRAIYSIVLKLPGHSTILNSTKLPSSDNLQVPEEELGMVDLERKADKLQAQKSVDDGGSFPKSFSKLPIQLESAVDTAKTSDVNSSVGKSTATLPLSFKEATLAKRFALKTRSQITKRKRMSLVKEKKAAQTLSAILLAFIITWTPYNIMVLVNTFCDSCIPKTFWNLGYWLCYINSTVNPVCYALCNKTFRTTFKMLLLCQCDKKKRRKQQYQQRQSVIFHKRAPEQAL

| Compound | huM1/A9L Smax [1] [%] | huM1/A9L ED50 relative to CCh* [1] | metabolism in human liver microsomes (in words) [2] | rate of metabolism of S- versus R-enantiomer [2] | huM3/A9L Smax [3] [%] | huM3/A9L ED50 relative to CCh* [3] | Papp at 24 h, 400 µM (in vitro; PAMPA, pH 7.4, 400 μM, read-out: PAMPA Permeability Coefficient (×10^6)) [×10⁻⁶ cm/s] | concentration at 1 h [4] [µM] | Increase in Inositol Phosphate in Hippocampus/Control [5] [%] | Increase in Inositol Phosphate in Salivary Gland/Control [6] [%] | huM3/A9L Smax [7] [%] | huM3/A9L Potency relative to carbachol [7] | huM1/A9L Smax [8] [%] | huM1/A9L Potency relative to carbachol [8] | Loss at 6 hrs (%) [9] [%] | PAMPA Permeability Coefficient (×10^6) (in vitro; 400 μM) | Increase in Inositol Phosphate in Hippocampus/Control ([5]; 3 mg/kg) [%] | Increase in Inositol Phosphate in Salivary Gland/Control ([6]; 3 mg/kg) [%] |
| --- | --- | --- | --- | --- | --- | --- | --- | --- | --- | --- | --- | --- | --- | --- | --- | --- | --- | --- |
| [2H]C([2H])([2H])c1noc([C@H]2CCCNC2)n1 [Compound 7a, S-(+)-3-D3-methyl-5-(piperidin-3-yl)-1,2,4-oxadiazole] | 81 | +/− (+/− potency 0.5-2x CCh) | metabolized significantly less in human liver microsomes than in rat liver microsomes | metabolized faster than the R-enantiomers | 76 | −− (−− potency <0.1x CCh) |  |  |  |  |  |  |  |  |  |  |  |  |
| Cc1noc([C@H]2CCCNC2)n1 [Compound 3a, S-(+)-3-methyl-5-(piperidin-3-yl)-1,2,4-oxadiazole] | 129 | + (+ potency 2-10x CCh) | metabolized significantly less in human liver microsomes than in rat liver microsomes | metabolized faster than the R-enantiomers | 66 | +/− (+/− potency 0.5-2x CCh) |  |  |  |  |  |  |  |  |  |  |  |  |
| [2H]C([2H])([2H])c1noc(C23CNCC2C3)n1 (stereo not shown) [Compound 138, 5-(3-azabicyclo[3.1.0]hexan-1-yl)-3-methyl-d3-1,2,4-oxadiazole] |  |  |  |  |  |  | 4.1 | 5.5 | 357 | 217 | 43 | 0.37 | 93 | 1.34 | 29 |  |  |  |
| [2H]C([2H])([2H])c1noc(C23CNC([2H])([2H])C2C3)n1 (stereo not shown) [Compound 137, 5-(6,6-d2-3-azabicyclo[3.1.0]hexan-1-yl)-3-methyl-1,2,4-oxadiazole] |  |  |  |  |  |  |  | 5.5 |  |  | 62 | 0.19 | 97 | 1.26 | 24 | 4.00 ×10^6 | 503 | 198 |
| [2H]C([2H])([2H])c1noc([C@@H]2CCCNC2)n1 [Compound 7b, R-(−)-3-D3-methyl-5-(piperidin-3-yl)-1,2,4-oxadiazole] | 90 | + (+ potency 2-10x CCh) | metabolized significantly less in human liver microsomes than in rat liver microsomes |  | 86 | +/− (+/− potency 0.5-2x CCh) |  |  |  |  |  |  |  |  |  |  |  |  |
| Cc1noc([C@@H]2CCCNC2)n1 [Compound 3b, R-(−)-3-methyl-5-(piperidin-3-yl)-1,2,4-oxadiazole] | 147 | +/− (+/− potency 0.5-2x CCh) | metabolized significantly less in human liver microsomes than in rat liver microsomes |  | 47 | − (− potency <0.5-0.1x CCh) |  |  |  |  |  |  |  |  |  |  |  |  |
